Laboratory results published in patent publication US20250026752A1, “POSITIVE ALLOSTERIC MODULATORS OF THE MUSCARINIC ACETYLCHOLINE RECEPTOR M4” (Vanderbilt University, priority 2021, published 2025).

Biological target: T1, human mAChR M4 (Homo sapiens, UniProt P08173)
T1 construct: expressed in transfected cells; host or cells: CHO-K1 (ATCC), stably expressing hM4 and Gqi5
T1 sequence (P08173 1-479): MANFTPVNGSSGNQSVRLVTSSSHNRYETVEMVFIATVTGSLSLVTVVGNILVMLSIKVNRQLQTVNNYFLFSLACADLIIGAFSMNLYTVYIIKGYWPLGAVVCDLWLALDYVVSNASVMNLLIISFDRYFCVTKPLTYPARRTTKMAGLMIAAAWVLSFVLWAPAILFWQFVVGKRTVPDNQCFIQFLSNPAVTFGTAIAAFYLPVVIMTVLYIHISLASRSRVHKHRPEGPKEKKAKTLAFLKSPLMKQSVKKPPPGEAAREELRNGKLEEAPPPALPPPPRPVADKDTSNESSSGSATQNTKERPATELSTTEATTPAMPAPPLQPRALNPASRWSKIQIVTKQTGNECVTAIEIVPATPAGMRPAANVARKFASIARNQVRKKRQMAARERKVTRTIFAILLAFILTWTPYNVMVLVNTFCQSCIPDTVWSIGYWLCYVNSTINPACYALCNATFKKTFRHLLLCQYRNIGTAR
Test: mAChR M4 cell-based functional assay: calcium flux (Fluo-4, FDSS), positive allosteric modulator activity on the EC20 acetylcholine response, hM4-Gqi5 CHO-K1 cells
Settings: for Emax at 30 µM: CHO-K1, human M4, % ACh maximum at 30 μM; for EC50: human M4, PAM activity on EC20 acetylcholine response, calcium flux, read-out: Human M4 EC50
Procedure, shortened: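 CHO-K1 cells stably expressing human M4 with chimeric Gqi5, loaded with Fluo-4 AM for 50 min at 37° C. Compounds (11-point, 1:3 dilutions) added first, then an acetylcholine EC20 at 144 s; calcium read on FDSS at 1 Hz. EC50 is the half-maximal increase above the EC20 baseline, four-parameter logistic fit.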

| Compound | Emax at 30 µM [%] | EC50 [nM] |
| --- | --- | --- |
| [2H]C1([2H])N(c2cnc3c(c2)CN(c2ncnc4cc(F)c(F)cc24)CC3)c2ccnn2C([2H])([2H])C1([2H])[2H] [Compound 282, 4-(3-(6,7-dihydropyrazolo[1,5-a]pyrimidin-4(5H)-yl-5,5,6,6,7,7-d6)-7,8-dihydro-1,6-naphthyridin-6(5H)-yl)-6,7-difluoroquinazoline] | 111 | 30 |
| [2H]c1nc(N2CCc3ncc(C(F)(F)F)cc3C2)c2cc(F)ccc2n1 [Compound 190, 2-deuterio-6-fluoro-4-[3-(trifluoromethyl)-7,8-dihydro-5H-1,6-naphthyridin-6-yl]quinazoline] | 91 | 60 |
| Cc1noc(C)c1-c1cnc2c(c1)CN(c1nc(-c3c(C)noc3C)nc3ccc(Cl)cc13)CC2 [Compound 187, 4-[6-chloro-4-[3-(3,5-dimethylisoxazol-4-yl)-7,8-dihydro-5H-1,6-naphthyridin-6-yl]quinazolin-2-yl]-3,5-dimethyl-isoxazole] | 79 | 4150 |
| Cn1nccc1-c1cnc2c(c1)CN(c1ncnc3cc(F)c(F)cc13)CC2 [Compound 239, 6,7-difluoro-4-(3-(1-methyl-1H-pyrazol-5-yl)-7,8-dihydro-1,6-naphthyridin-6(5H)-yl)quinazoline] | 73 | 800 |
| Fc1ccc2ncnc(N3CCc4ncc(N5CCC(C(F)(F)F)n6nccc65)cc4C3)c2c1 (stereo not shown) [Compound 69, 6-fluoro-4-[3-[7-(trifluoromethyl)-6,7-dihydro-5H-pyrazolo[1,5-a]pyrimidin-4-yl]-7,8-dihydro-5H-1,6-naphthyridin-6-yl]quinazoline] | 71 | 120 |
| Cc1nc(N2CCc3ncc(-c4cc(F)c(F)cc4C)cc3C2)c2cc(F)ccc2n1 [Compound 307, 4-(3-(4,5-difluoro-2-methylphenyl)-7,8-dihydro-1,6-naphthyridin-6(5H)-yl)-6-fluoro-2-methylquinazoline] | 54 | 3730 |
| Cc1ncc(-c2cnc3c(c2)CN(c2nc(C(F)(F)F)nc4ccc(F)cc24)CC3)s1 [Compound 66, 5-[6-[6-fluoro-2-(trifluoromethyl)quinazolin-4-yl]-7,8-dihydro-5H-1,6-naphthyridin-3-yl]-2-methyl-thiazole] | 35 | 810 |
| Cc1ccc2nc(Nc3ccnn3C)nc(N3CCc4ncc(C(F)(F)F)cc4C3)c2c1 [Compound 181, 6-methyl-N-(2-methylpyrazol-3-yl)-4-[3-(trifluoromethyl)-7,8-dihydro-5H-1,6-naphthyridin-6-yl]quinazolin-2-amine] | 85 | 550 |
| Cc1ccc2nc(NC3CCOC3)nc(N3CCc4ncc(C(F)(F)F)cc4C3)c2c1 (stereo not shown) [Compound 207, 6-methyl-N-tetrahydrofuran-3-yl-4-[3-(trifluoromethyl)-7,8-dihydro-5H-1,6-naphthyridin-6-yl]quinazolin-2-amine] | 75 | 440 |
| COc1ccc2ncnc(N3CCc4ncc(-c5cc(F)ccc5C)cc4C3)c2c1 [Compound 297, 4-(3-(5-fluoro-2-methylphenyl)-7,8-dihydro-1,6-naphthyridin-6(5H)-yl)-6-methoxyquinazoline] | 101 | 1550 |
| Cc1nc(N2CCc3ncc(C(F)(F)F)cc3C2)c2cccc(F)c2n1 [Compound 126, 8-fluoro-2-methyl-4-[3-(trifluoromethyl)-7,8-dihydro-5H-1,6-naphthyridin-6-yl]quinazoline] | 66 | 310 |
| [2H]C1([2H])N(c2cnc3c(c2)CN(c2ncnc4ccc(F)cc24)CC3)c2ccnn2C([2H])([2H])C1([2H])[2H] [Compound 281, 4-(3-(6,7-dihydropyrazolo[1,5-a]pyrimidin-4(5H)-yl-5,5,6,6,7,7-d6)-7,8-dihydro-1,6-naphthyridin-6(5H)-yl)-6-fluoroquinazoline] | 104 | 30 |
| CC1CN(c2ncnc3ccc(F)cc23)Cc2cc(N(c3cccnc3)c3cccnc3)cnc21 (stereo not shown) [Compound 235, 6-(6-fluoroquinazolin-4-yl)-8-methyl-N,N-di(pyridin-3-yl)-5,6,7,8-tetrahydro-1,6-naphthyridin-3-amine] | 77 | 630 |
| Cc1ccc2nc(C)nc(N3CCc4ncc(-c5ccccc5C)cc4C3)c2c1 [Compound 316, 2,6-dimethyl-4-(3-(o-tolyl)-7,8-dihydro-1,6-naphthyridin-6(5H)-yl)quinazoline] | 93 | 1600 |
| C[C@@H]1CCN(c2cnc3c(c2)CN(c2ncnc4ccc(F)cc24)CC3)c2ccnn21 [Compound 288, (R)-6-fluoro-4-(3-(7-methyl-6,7-dihydropyrazolo[1,5-a]pyrimidin-4(5H)-yl)-7,8-dihydro-1,6-naphthyridin-6(5H)-yl)quinazoline] | 75 | 40 |
| Fc1ncccc1Nc1cnc2c(c1)CN(c1ncnc3ccc(Cl)cc13)CC2 [Compound 71, 6-(6-chloroquinazolin-4-yl)-N-(2-fluoro-3-pyridyl)-7,8-dihydro-5H-1,6-naphthyridin-3-amine] | 82 | 140 |
| Cc1ncc(-c2cnc3c(c2)CN(c2ncnc4cc(F)c(F)cc24)CC3)s1 [Compound 52, 5-[6-(6,7-difluoroquinazolin-4-yl)-7,8-dihydro-5H-1,6-naphthyridin-3-yl]-2-methyl-thiazole] | 87 | 80 |
| Fc1ccc(Cc2cnc3c(c2)CN(c2ncnc4ccc(F)cc24)CC3)cc1 [Compound 170, 6-fluoro-4-[3-[(4-fluorophenyl)methyl]-7,8-dihydro-5H-1,6-naphthyridin-6-yl]quinazoline] | 82 | 490 |
| Fc1ccc2nc(NC3CC3)nc(N3CCc4ncc(C(F)(F)F)cc4C3)c2c1 [Compound 196, N-cyclopropyl-6-fluoro-4-[3-(trifluoromethyl)-7,8-dihydro-5H-1,6-naphthyridin-6-yl]quinazolin-2-amine] | 98 | 410 |
| COc1ccc2nc(O)nc(N3CCc4ncc(C(F)(F)F)cc4C3)c2c1 [Compound 221, 6-methoxy-4-(3-(trifluoromethyl)-7,8-dihydro-1,6-naphthyiridin-6(5H)-yl)quinazolin-2-ol] | 44 | 1490 |
| CC(C)(O)CNc1nc(N2CCc3ncc(N4CCCn5nccc54)cc3C2)c2cccnc2n1 [Compound 247, 1-((4-(3-(6,7-dihydropyrazolo[1,5-a]pyrimidin-4(5H)-yl)-7,8-dihydro-1,6-naphthyridin-6(5H)-yl)pyrido[2,3-d]pyrimidin-2-yl)amino)-2-methylpropan-2-ol] | 80 | 370 |
| c1cnc2nc(N3CCCC3)nc(N3CCc4ncc(N5CCCn6nccc65)cc4C3)c2c1 [Compound 246, 4-(3-(6,7-dihydropyrazolo[1,5-a]pyrimidin-4(5H)-yl)-7,8-dihydro-1,6-naphthyridin-6(5H)-yl)-2-(pyrrolidin-1-yl)pyrido[2,3-d]pyrimidine] | 63 | 50 |
| Cn1nccc1-c1cnc2c(c1)CN(c1ncnc3ccc(F)cc13)CC2 [Compound 18, 6-fluoro-4-[3-(2-methylpyrazol-3-yl)-7,8-dihydro-5H-1,6-naphthyridin-6-yl]quinazoline] | 70 | 40 |
| Fc1cc2ncnc(N3CCc4ncc(CC(F)(F)F)cc4C3)c2cc1F [Compound 286, 6,7-difluoro-4-(3-(2,2,2-trifluoroethyl)-7,8-dihydro-1,6-naphthyridin-6(5H)-yl)quinazoline] | 97 | 170 |
| COc1nc(N2CCc3ncc(C(F)(F)F)cc3C2)c2cc(C)ccc2n1 [Compound 179, 2-methoxy-6-methyl-4-[3-(trifluoromethyl)-7,8-dihydro-5H-1,6-naphthyridin-6-yl]quinazoline] | 98 | 340 |
| Fc1ccc2nc(NC3CCOC3)nc(N3CCc4ncc(C(F)(F)F)cc4C3)c2c1 (stereo not shown) [Compound 202, 6-fluoro-N-tetrahydrofuran-3-yl-4-[3-(trifluoromethyl)-7,8-dihydro-5H-1,6-naphthyridin-6-yl]quinazolin-2-amine] | 92 | 300 |
| Cn1nccc1Nc1cnc2c(c1)CN(c1nc(N3CCOCC3)nc3ccc(F)cc13)CC2 [Compound 185, 6-(6-fluoro-2-morpholino-quinazolin-4-yl)-N-(2-methylpyrazol-3-yl)-7,8-dihydro-5H-1,6-naphthyridin-3-amine] | 83 | 390 |
| Cc1ccc2ncnc(N3CCc4ncc(N5CCCn6nccc65)cc4C3)c2c1 [Compound 78, 4-[3-(6,7-dihydro-5H-pyrazolo[1,5-a]pyrimidin-4-yl)-7,8-dihydro-5H-1,6-naphthyridin-6-yl]-6-methyl-quinazoline] | 129 | 30 |
| Cc1ccc2nc(C)nc(N3CCc4ncc(C(F)(F)F)cc4C3)c2c1 [Compound 177, 2,6-dimethyl-4-[3-(trifluoromethyl)-7,8-dihydro-5H-1,6-naphthyridin-6-yl]quinazoline] | 92 | 60 |
